The text below walks through data of PMC3951423, “Structural Bases of Norovirus RNA Dependent RNA Polymerase Inhibition by Novel Suramin-Related Compounds” (PLoS ONE, 2014).

Converted amounts (≈) assume the structure as drawn. “And” between values parts separate entries of the source, which are not always exact repeats. Equal entries are not always repeated. Structures can show the parent of a compound that is named as a salt.

Data set [1] is described as follows: n-Octanol/water partition coefficient (shake-flask method). To be noted: n-octanol / pH 7.4 phosphate buffer, 25 °C, average of three experiments, read-out: hydrophobicity log P. Type of data set: physicochemical. An excerpt:
(§1) Bookser's method was applied to obtain the water solubility of sodium organosulphonates 3–8 and Suramin (9) by use of HPLC with a UV detector (see Table 1). Furthermore, the “shake–flask method” [28] was applied to obtain their hydrophobicity by use of n-octanol and water. The apparent partition coefficient (P) shown in Table 1 is the ratio of the concentration in n-octanol to the total concentration (i.e., ionized plus non-ionized) of the species in the aqueous phase, [29].
The n-octanol/water partition coefficient of Suramin derivatives was determined by the shake-flask method. n-Octanol and pH 7.4 phosphate buffer were mutually saturated for 4.0 hours, and the phases were separated. A stock solution of each Suramin derivative was prepared using pH 7.4 phosphate buffer solution. Suramin derivatives were partitioned between n-octanol and pH 7.4 phosphate buffer. Then the phase mixtures were shaken for 1 hour at constant 25 °C. After separation, the absorbance of the phosphate buffer solutions (pH 7.4) was measured by UV spectrophotometry. Three replicates were performed for each compound. The P value corresponded to the quotient between n-octanol and buffer concentrations of the drug. The log P values were an average of three independent experiments.

Data set [2] in a line: Water solubility (Bookser's method). To be noted: thermodynamic from solid, deionized water, saturated solution. Type of data set: physicochemical.
Excerpt: as §1
A stock solution was prepared by dissolving a precisely weighed amount of Suramin derivatives in deionized water (1.0 ml). The UV absorption maximum of each compound was measured by dilution of the solution with deionized water as necessary. A saturated solution of each compound was then prepared by use of deionized water (1.0 ml) in the presence of an excess of Suramin derivatives for 1.0 hour. The obtained saturated solution was filtered to remove solid compound through a Millipore filter (0.45 μm) and was scanned by UV spectroscopy at the wavelength of the absorption maximum previously determined.

Data set [3] has as its target T1, hNV-RdRp (Norovirus GII (human norovirus; Norwalk-like virus), UniProt A0ZNP5). The data set is described as follows: In-vitro RdRp inhibition assay (PicoGreen fluorescence, poly(C)/oligoG12). Type of data set: biochemical. To be noted: poly(C) template, G12 primer, GTP 100 μM; read-out: IC50 hNVRdRp. Here is the method:
(§2) hNV and mNV-RdRp inhibition assays were performed monitoring the impairment of RNA synthesis as a function of inhibitor concentration, as previously described. Briefly, RdRp activity was assessed in vitro (measuring PicoGreen fluorescence) following the synthesis of double-stranded RNA from a single-stranded RNA poly(C) template annealed with a G12 primer. The assay can easily be adapted for any viral RNA polymerase.
(§3) RdRp assays were performed as previously described. In brief poly(C) (MP Biomedicals) was used as template annealed with oligoG12 as primer (62.5 nM final concentration) and GTP (100 μM final concentration) as substrate, in a 200 μl reaction mixture containing 20 mM Tris/HCl pH 7.5, 25 mM NaCl, 5 mM MgCl2, 0.3 mM MnCl2, 1 mM DTT, PicoGreen Quantitation Reagent (Molecular Probes) diluted 1/200 20 U ml−1 RiboLock Ribonuclease Inhibitor (Fermentas). Reactions were started by the addition of GTP following the fluorescence of samples in a fluorescence reader (Varian, Cary Eclipse Fluorescence Spectrophotometer).

Data set [4] has as its target T2, mNV-RdRp (Norovirus, UniProt Q80J95).
T2 construct: Solutions of 4 μl of the NV-RdRp domain (final hNV-RdRp concentration 7 μM, final mNV-RdRp concentration 1.6 μM); made in house
The data set is described as above. Type of data set: biochemical. The conditions noted are these: poly(C) template, G12 primer, GTP 100 μM; read-out: IC50 mNVRdRp. Here is the method:
as §2, §3

The test system of a further data set is NV-RdRp. Details: method as in earlier work. To be noted: ref 34 (Tarantino et al., in press); cited from earlier work.
Data set [5] in a line: Solubility in organic solvents (observation during synthesis). Type of data set: physicochemical. To be noted: most organic solvents, including THF and DMSO.
For data set [6] the following is noted: statement in the Introduction, no reference given; cited from earlier work.
In data set [7] the target is T1, hNV-RdRp. The data set is described as follows: Thermofluorimetric (thermal shift) assay. Type of data set: binding. To be noted: inhibitor 4 μM, hNV-RdRp 7 μM, Sypro Orange; free enzyme Tm 41.5. The method, then: (§4) In order to exclude that 8 and 6 inhibition might be linked to some form of RdRp destabilization/aggregation/denaturation, a process generally reflected by a variation of the protein melting temperature (Tm), we performed thermofluorimetric assays on free and inhibited NV-RdRps.
(§5) Thermofluorimetric (Thermal shift) assays for the evaluation of the hNV-RdRp melting temperature (Tm) in the absence/presence of the inhibitors, were conducted in a MiniOpticon Real Time PCR Detection System (Bio-Rad), using the fluorescent dye Sypro Orange. Solutions of 4 μl of the NV-RdRp domain (final hNV-RdRp concentration 7 μM, final mNV-RdRp concentration 1.6 μM) were diluted in 9.5 μl of its buffer, and mixed with 3.5 μl of Sypro orange (Sigma) diluted 60×, and 1 μl of 6 or 8 (4 μM final concentration). In control samples the inhibitors were replaced by water. The sample plates were heated from 20 to 90°C with a heating rate of 0.2 °C/min. Fluorescence intensities were measured within excitation/emission ranges of 470–505 nm and 540–700 nm, respectively.
For orientation: Differential scanning fluorimetry follows unfolding on heating by fluorescence.

Data set [8] has as its target T2, mNV-RdRp. In words: Thermofluorimetric (thermal shift) assay. Type of data set: binding. To be noted: inhibitor 4 μM, mNV-RdRp 1.6 μM, Sypro Orange; free enzyme Tm 39.6 ±0.2. The method, then: as §4, §5

Usually solubility stands for the concentration that dissolves in the medium under given conditions. One may read the IC50 as the concentration that inhibits the measured activity by half.

On to `Cc1ccc(C(=O)Nc2ccc(S(=O)(=O)O)c3cccc(S(=O)(=O)O)c23)cc1[N+](=O)[O-]` [Compound 3, 4-(4-Methyl-3-nitrobenzamido)naphthalene-1,5-disulphonate Acid Disodium Salt], for which, in [1], the logP at 1 h is -2.19. The solubility at 1 h in data set [2] worked out at 260 mg/mL. Also, the figures for the IC50 on hNV-RdRp [3] and on mNV-RdRp [4] were 1280 ± 70 nM and 200 ± 10 nM, respectively.
For the compound `Cc1nc(N=Nc2cc(S(=O)(=O)O)c3cc([N+](=O)[O-])cc(S(=O)(=O)O)c3c2)c(COP(=O)(O)O)c(C=O)c1O` [PPNDS], the “inhibitory potency against NV-RdRp” value in the data set with NV-RdRp is “low nM”.
With `Cc1ccc(C(=O)Nc2ccc(S(=O)(=O)O)c3cccc(S(=O)(=O)O)c23)cc1NC(=O)c1cccc(N)c1` [Compound 7, 4-[3-(3-Aminobenzamido)-4-methylbenzamido]naphthalene-1,5-disulphonate Acid Disodium Salt], the logP at 1 h in data set [1] is -2.11. The “Solubility in organic solvents” value in [5] is recorded as “very poor”. This compound also registered a solubility at 1 h in data set [2] of 249 mg/mL. Further, the IC50 on hNV-RdRp [3] was 1100 ± 50 nM; on mNV-RdRp [4] it was 160 ± 6 nM.
`Cc1ccc(C(=O)Nc2ccc(S(=O)(=O)O)c3cc(S(=O)(=O)O)cc(S(=O)(=O)O)c23)cc1NC(=O)c1cccc(NC(=O)Nc2cccc(C(=O)Nc3cc(C(=O)Nc4ccc(S(=O)(=O)O)c5cc(S(=O)(=O)O)cc(S(=O)(=O)O)c45)ccc3C)c2)c1` [Suramin (9), Suramin]: in data set [6], the “log P” value is listed as “lower than 0”. In addition, the logP at 1 h in data set [1] was -3.42. This compound returned a solubility at 1 h in data set [2] of 138 mg/mL (≈ 106 mM). In addition, the values for the IC50 on hNV-RdRp [3] and at mNV-RdRp [4] were 27 ± 3 nM and 70 ± 3 nM, respectively.
For the compound `Cc1ccc(C(=O)Nc2ccc(S(=O)(=O)O)c3cccc(S(=O)(=O)O)c23)cc1N` [Compound 4, 4-(3-Amino-4-methylbenzamido)naphthalene-1,5-disulphonate Acid Disodium Salt], the logP at 1 h in [1] is -2.33. Moreover, the solubility at 1 h in data set [2] stood at 339 mg/mL. In addition, the IC50 on hNV-RdRp [3] amounted to 1100 ± 200 nM; on mNV-RdRp [4], 160 ± 7 nM.
Regarding `Cc1ccc(C(=O)Nc2ccc(S(=O)(=O)O)c3cccc(S(=O)(=O)O)c23)cc1NC(=O)c1cccc([N+](=O)[O-])c1` [Compound 6, 4-[4-Methyl-3-(3-nitrobenzamido)benzamido]naphthalene-1,5-disulsulphonate Acid Disodium Salt], the “hNV-RdRp Tm in the presence of inhibitor” value on hNV-RdRp [7] turned out to be 41.2±0.2 °C. Further, at mNV-RdRp [8], the “mNV-RdRp Tm in the presence of inhibitor” value came to 39.4±0.3 °C. Besides, in data set [1], the logP at 1 h is -1.64. The same compound displayed a solubility at 1 h in [2] of 179 mg/mL. For the same compound, the values for the IC50 at hNV-RdRp [3] and at mNV-RdRp [4] were 1000 ± 90 nM and 115 ± 15 nM, respectively.
In the case of `Cc1ccc(C(=O)Nc2ccc(S(=O)(=O)O)c3cccc(S(=O)(=O)O)c23)cc1NC(=O)c1cccc(NC(=O)Nc2cccc(C(=O)Nc3cc(C(=O)Nc4ccc(S(=O)(=O)O)c5cccc(S(=O)(=O)O)c45)ccc3C)c2)c1` [Compound 8, 4-4′-(Carbonylbis[imino-3,1-phenylenecarbonylimino(4-methyl-3,1-phenylene)carbonylimino])bis-1,5-naphthalenedisulphonate Acid Tetrasodium Salt], the “hNV-RdRp Tm in the presence of inhibitor” value on hNV-RdRp [7] worked out at 41.4 °C. The “mNV-RdRp Tm in the presence of inhibitor” value at mNV-RdRp [8] is 39.8 ±0.2 °C. Moreover, the logP at 1 h in data set [1] was -1.61. The solubility at 1 h in data set [2] was 114 mg/mL. Further, the IC50 is 28 ± 4 nM on hNV-RdRp [3]; ~60 nM and 60 nM on mNV-RdRp [4].
